Several values for one entry are separate records, joined by “and”; a condition that tells them apart may be missing. Equal entries are not always repeated.
Assay: molar heat capacity at constant pressure
Conditions: 101.33 kPa, Crystal

O [water]
Conditions	molar heat capacity at constant pressure
0.4719 K, Low-temperature adiabatic	4.834e-06 J/K/mol
0.4841 K, Low-temperature adiabatic	2.38e-05 J/K/mol
0.5 K, adiabatic	2.28e-05 J/K/mol
0.5191 K, Low-temperature adiabatic	3.571e-05 J/K/mol
0.5328 K, Low-temperature adiabatic	2.99e-05 J/K/mol
0.5456 K, Low-temperature adiabatic	3.104e-05 J/K/mol
0.5713 K, Low-temperature adiabatic	3.382e-05 J/K/mol
0.5859 K, Low-temperature adiabatic	3.177e-05 J/K/mol
0.5999 K, Low-temperature adiabatic	3.883e-05 J/K/mol
0.6287 K, Low-temperature adiabatic	4.342e-05 J/K/mol
0.6451 K, Low-temperature adiabatic	3.414e-05 J/K/mol
0.6608 K, Low-temperature adiabatic	4.582e-05 J/K/mol
0.6935 K, Low-temperature adiabatic	5.952e-05 J/K/mol
0.7107 K, Low-temperature adiabatic	6.565e-05 J/K/mol
0.7283 K, Low-temperature adiabatic	7.207e-05 J/K/mol
0.764 K, Low-temperature adiabatic	7.817e-05 J/K/mol
0.783 K, Low-temperature adiabatic	8.554e-05 J/K/mol
0.8021 K, Low-temperature adiabatic	9.413e-05 J/K/mol
0.8407 K, Low-temperature adiabatic	0.0001158 J/K/mol
0.8618 K, Low-temperature adiabatic	0.0001219 J/K/mol
0.8828 K, Low-temperature adiabatic	0.0001311 J/K/mol
0.9245 K, Low-temperature adiabatic	0.0001506 J/K/mol
0.9708 K, Low-temperature adiabatic	0.000169 J/K/mol
1 K, adiabatic	0.0001825 J/K/mol
1.015 K, Low-temperature adiabatic	0.0001986 J/K/mol
1.04 K, Low-temperature adiabatic	0.0002059 J/K/mol
1.066 K, Low-temperature adiabatic	0.0002218 J/K/mol
1.116 K, Low-temperature adiabatic	0.0002582 J/K/mol
1.146 K, Low-temperature adiabatic	0.0002671 J/K/mol
1.173 K, Low-temperature adiabatic	0.0002946 J/K/mol
1.228 K, Low-temperature adiabatic	0.0003386 J/K/mol
1.261 K, Low-temperature adiabatic	0.0003738 J/K/mol
1.292 K, Low-temperature adiabatic	0.0004076 J/K/mol
1.352 K, Low-temperature adiabatic	0.0004587 J/K/mol
1.388 K, Low-temperature adiabatic	0.0004915 J/K/mol
1.485 K, Low-temperature adiabatic	0.0006013 J/K/mol
1.5 K, adiabatic	0.0006167 J/K/mol
1.522 K, Low-temperature adiabatic	0.0006394 J/K/mol
1.561 K, Low-temperature adiabatic	0.0006901 J/K/mol
1.634 K, Low-temperature adiabatic	0.0007957 J/K/mol
1.675 K, Low-temperature adiabatic	0.0008489 J/K/mol
1.716 K, Low-temperature adiabatic	0.0009132 J/K/mol
1.731 K, Low-temperature adiabatic	0.0009652 J/K/mol
1.798 K, Low-temperature adiabatic	0.001053 J/K/mol
1.816 K, Low-temperature adiabatic	0.001109 J/K/mol
1.843 K, Low-temperature adiabatic	0.001123 J/K/mol
1.887 K, Low-temperature adiabatic	0.001207 J/K/mol
1.904 K, Low-temperature adiabatic	0.00125 J/K/mol
1.977 K, Low-temperature adiabatic	0.00139 J/K/mol
1.998 K, Low-temperature adiabatic	0.001434 J/K/mol
2 K, adiabatic	0.001465 J/K/mol
2.027 K, Low-temperature adiabatic	0.001484 J/K/mol
2.076 K, Low-temperature adiabatic	0.001598 J/K/mol
2.095 K, Low-temperature adiabatic	0.001659 J/K/mol
2.175 K, Low-temperature adiabatic	0.00184 J/K/mol
2.2 K, Low-temperature adiabatic	0.001902 J/K/mol
2.304 K, Low-temperature adiabatic	0.002208 J/K/mol
2.421 K, Low-temperature adiabatic	0.002544 J/K/mol
2.5 K, adiabatic	0.002874 J/K/mol
2.536 K, Low-temperature adiabatic	0.002963 J/K/mol
2.664 K, Low-temperature adiabatic	0.003432 J/K/mol
2.791 K, Low-temperature adiabatic	0.003994 J/K/mol
2.932 K, Low-temperature adiabatic	0.004612 J/K/mol
3 K, adiabatic	0.004998 J/K/mol
3.073 K, Low-temperature adiabatic	0.005384 J/K/mol
3.228 K, Low-temperature adiabatic	0.006206 J/K/mol
3.381 K, Low-temperature adiabatic	0.007213 J/K/mol
3.5 K, adiabatic	0.008013 J/K/mol
3.552 K, Low-temperature adiabatic	0.008311 J/K/mol
3.719 K, Low-temperature adiabatic	0.00968 J/K/mol
3.906 K, Low-temperature adiabatic	0.01117 J/K/mol
4 K, adiabatic	0.01212 J/K/mol
4.089 K, Low-temperature adiabatic	0.01302 J/K/mol
4.294 K, Low-temperature adiabatic	0.01503 J/K/mol
4.498 K, Low-temperature adiabatic	0.01756 J/K/mol
4.5 K, adiabatic	0.01755 J/K/mol
4.723 K, Low-temperature adiabatic	0.02031 J/K/mol
4.947 K, Low-temperature adiabatic	0.02384 J/K/mol
5 K, adiabatic	0.02458 J/K/mol
5.194 K, Low-temperature adiabatic	0.02762 J/K/mol
5.44 K, Low-temperature adiabatic	0.03248 J/K/mol
5.5 K, adiabatic	0.03354 J/K/mol
5.713 K, Low-temperature adiabatic	0.03773 J/K/mol
5.985 K, Low-temperature adiabatic	0.04456 J/K/mol
6 K, adiabatic	0.04478 J/K/mol
6.284 K, Low-temperature adiabatic	0.05186 J/K/mol
6.5 K, adiabatic	0.05874 J/K/mol
6.583 K, Low-temperature adiabatic	0.06156 J/K/mol
6.912 K, Low-temperature adiabatic	0.07207 J/K/mol
7 K, adiabatic	0.07583 J/K/mol
7.239 K, Low-temperature adiabatic	0.08574 J/K/mol
7.5 K, adiabatic	0.09651 J/K/mol
7.6 K, Low-temperature adiabatic	0.1009 J/K/mol
7.96 K, Low-temperature adiabatic	0.1206 J/K/mol
8 K, adiabatic	0.1212 J/K/mol
8.354 K, Low-temperature adiabatic	0.1416 J/K/mol
8.5 K, adiabatic	0.1503 J/K/mol
8.75 K, Low-temperature adiabatic	0.1684 J/K/mol
9 K, adiabatic	0.1842 J/K/mol
9.185 K, Low-temperature adiabatic	0.1972 J/K/mol
9.187 K, Low-temperature adiabatic	0.1979 J/K/mol
9.5 K, adiabatic	0.2231 J/K/mol
9.619 K, Low-temperature adiabatic	0.2343 J/K/mol
9.645 K, Low-temperature adiabatic	0.2352 J/K/mol
10 K, adiabatic	0.2672 J/K/mol
10.11 K, Low-temperature adiabatic	0.2752 J/K/mol and 0.2768 J/K/mol
10.59 K, Low-temperature adiabatic	0.3268 J/K/mol
10.6 K, Low-temperature adiabatic	0.3266 J/K/mol
11 K, adiabatic	0.3709 J/K/mol
11.12 K, Low-temperature adiabatic	0.3841 J/K/mol
11.66 K, Low-temperature adiabatic	0.4516 J/K/mol
12 K, adiabatic	0.4948 J/K/mol
12.23 K, Low-temperature adiabatic	0.5267 J/K/mol
12.82 K, Low-temperature adiabatic	0.6103 J/K/mol
13 K, adiabatic	0.6372 J/K/mol
13.43 K, Low-temperature adiabatic	0.7044 J/K/mol
14 K, adiabatic	0.7967 J/K/mol
14.08 K, Low-temperature adiabatic	0.8099 J/K/mol
14.75 K, Low-temperature adiabatic	0.9261 J/K/mol
15 K, adiabatic	0.9716 J/K/mol
15.46 K, Low-temperature adiabatic	1.058 J/K/mol
16 K, adiabatic	1.16 J/K/mol
16.19 K, Low-temperature adiabatic	1.197 J/K/mol
16.99 K, Low-temperature adiabatic	1.356 J/K/mol
17 K, adiabatic	1.358 J/K/mol
17.79 K, Low-temperature adiabatic	1.518 J/K/mol
18 K, adiabatic	1.564 J/K/mol
18.66 K, Low-temperature adiabatic	1.704 J/K/mol
19 K, adiabatic	1.777 J/K/mol
19.55 K, Low-temperature adiabatic	1.895 J/K/mol
19.6 K, Low-temperature adiabatic	1.908 J/K/mol
20 K, adiabatic	1.993 J/K/mol
20.58 K, Low-temperature adiabatic	2.12 J/K/mol
21.46 K, Low-temperature adiabatic	2.315 J/K/mol
22 K, adiabatic	2.433 J/K/mol
22.52 K, Low-temperature adiabatic	2.55 J/K/mol
23.59 K, Low-temperature adiabatic	2.78 J/K/mol
24 K, adiabatic	2.873 J/K/mol
24.75 K, Low-temperature adiabatic	3.037 J/K/mol
25.92 K, Low-temperature adiabatic	3.292 J/K/mol
26 K, adiabatic	3.306 J/K/mol
27.21 K, Low-temperature adiabatic	3.562 J/K/mol
28 K, adiabatic	3.728 J/K/mol
28.49 K, Low-temperature adiabatic	3.828 J/K/mol
29.94 K, Low-temperature adiabatic	4.128 J/K/mol
30 K, adiabatic	4.139 J/K/mol
31.38 K, Low-temperature adiabatic	4.423 J/K/mol
32 K, adiabatic	4.543 J/K/mol
32.99 K, Low-temperature adiabatic	4.735 J/K/mol
34 K, adiabatic	4.947 J/K/mol
34.59 K, Low-temperature adiabatic	5.067 J/K/mol
36 K, adiabatic	5.363 J/K/mol
36.02 K, Low-temperature adiabatic	5.371 J/K/mol
37.45 K, Low-temperature adiabatic	5.677 J/K/mol
38 K, adiabatic	5.804 J/K/mol
